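Five compound concentrations were applied to cells in 96-well plates for 48 hours; endpoints were derived by simple linear interpolation of the resulting dose-response curve. GI50: concentration for 50% inhibition of growth.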 The source made the active and inactive calls. No stated cut-off is given here; in the data, active = GI50 up to about 1.1 µM and inactive = higher.
Columns and labels:
Assay in all cases: inhibition of tumour cell growth, NCI panel, 48 h
SW-620 = tested on: SW-620
786-0 = tested on: 786-0
NCI/ADR-RES = tested on: NCI/ADR-RES
A498 = tested on: A498
NCI-H460 = tested on: NCI-H460
MDA-N = tested on: MDA-N
K562 = tested on: K562
IGROV-1 = tested on: IGROV-1
DU-145 = tested on: DU-145
LOX IMVI = tested on: LOX IMVI
UACC-62 = tested on: UACC-62
HCT-116 = tested on: HCT-116
SF-268 = tested on: SF-268
SNB-19 = tested on: SNB-19
T47D = tested on: T47D
UACC-257 = tested on: UACC-257
MDA-MB-231 = tested on: MDA-MB-231
ACHN = tested on: ACHN
MOLT-4 = tested on: MOLT-4
TK-10 = tested on: TK-10
EKVX = tested on: EKVX
HT-29 = tested on: HT-29
SR = tested on: SR
U-251 = tested on: U-251
SN12C = tested on: SN12C
OVCAR-3 = tested on: OVCAR-3
OVCAR-5 = tested on: OVCAR-5
Hs-578T = tested on: Hs-578T
NCI-H23 = tested on: NCI-H23
SNB-75 = tested on: SNB-75
HCC 2998 = tested on: HCC 2998
CCRF-CEM = tested on: CCRF-CEM
Malme-3M = tested on: Malme-3M
SK-MEL-5 = tested on: SK-MEL-5
A549 = tested on: A549
SK-OV-3 = tested on: SK-OV-3
RPMI-8226 = tested on: RPMI-8226
BT-549 = tested on: BT-549
SK-MEL-2 = tested on: SK-MEL-2
HL-60 = tested on: HL-60
HOP-92 = tested on: HOP-92
MDA-MB-435 = tested on: MDA-MB-435
PC-3 = tested on: PC-3
CAKI-1 = tested on: CAKI-1
NCI-H226 = tested on: NCI-H226
KM12 = tested on: KM12
COLO 205 = tested on: COLO 205
SK-MEL-28 = tested on: SK-MEL-28
M14 = tested on: M14
HCT-15 = tested on: HCT-15
OVCAR-8 = tested on: OVCAR-8
UO-31 = tested on: UO-31
SF-539 = tested on: SF-539
OVCAR-4 = tested on: OVCAR-4
HOP-62 = tested on: HOP-62
MCF7 = tested on: MCF7
SF-295 = tested on: SF-295
RXF 393 = tested on: RXF 393
NCI-H522 = tested on: NCI-H522

CCOC(=O)N1CCC2(CC1)CC(=O)N(Nc1ccccc1)C2=O
GI50 (SW-620): > 100 µM (inactive)
GI50 (786-0): > 100 µM (inactive)
GI50 (NCI/ADR-RES): > 100 µM (inactive)
GI50 (A498): > 100 µM (inactive)
GI50 (NCI-H460): 94.4 µM (inactive)
GI50 (MDA-N): 78.3 µM (inactive)
GI50 (K562): 16.9 µM (inactive)
GI50 (IGROV-1): 79.8 µM (inactive)
GI50 (DU-145): > 100 µM (inactive)
GI50 (LOX IMVI): 98.4 µM (inactive)
GI50 (UACC-62): 32.1 µM (inactive)
GI50 (HCT-116): > 100 µM (inactive)
GI50 (SF-268): > 100 µM (inactive)
GI50 (SNB-19): > 100 µM (inactive)
GI50 (T47D): 43.5 µM (inactive)
GI50 (UACC-257): > 100 µM (inactive)
GI50 (MDA-MB-231): > 100 µM (inactive)
GI50 (ACHN): 9.71 µM (inactive)
GI50 (MOLT-4): > 100 µM (inactive)
GI50 (TK-10): > 100 µM (inactive)
GI50 (EKVX): > 100 µM (inactive)
GI50 (HT-29): 90.2 µM (inactive)
GI50 (SR): 32.1 µM (inactive)
GI50 (U-251): > 100 µM (inactive)
GI50 (SN12C): > 100 µM (inactive)
GI50 (OVCAR-3): > 100 µM (inactive)
GI50 (OVCAR-5): 91.6 µM (inactive)
GI50 (Hs-578T): 41.1 µM (inactive)
GI50 (NCI-H23): > 100 µM (inactive)
GI50 (SNB-75): > 100 µM (inactive)
GI50 (HCC 2998): > 100 µM (inactive)
GI50 (CCRF-CEM): > 100 µM (inactive)
GI50 (Malme-3M): > 100 µM (inactive)
GI50 (SK-MEL-5): > 100 µM (inactive)
GI50 (A549): > 100 µM (inactive)
GI50 (SK-OV-3): > 100 µM (inactive)
GI50 (RPMI-8226): > 100 µM (inactive)
GI50 (BT-549): > 100 µM (inactive)
GI50 (SK-MEL-2): > 100 µM (inactive)
GI50 (HL-60): 28.9 µM (inactive)
GI50 (HOP-92): > 100 µM (inactive)
GI50 (MDA-MB-435): 30.8 µM (inactive)
GI50 (PC-3): 40.6 µM (inactive)
GI50 (CAKI-1): > 100 µM (inactive)
GI50 (NCI-H226): > 100 µM (inactive)
GI50 (KM12): 92.7 µM (inactive)
GI50 (COLO 205): > 100 µM (inactive)
GI50 (SK-MEL-28): 74.3 µM (inactive)
GI50 (M14): > 100 µM (inactive)
GI50 (HCT-15): > 100 µM
GI50 (OVCAR-8): > 100 µM (inactive)
GI50 (UO-31): 39.9 µM (inactive)
GI50 (SF-539): 27.5 µM (inactive)
GI50 (OVCAR-4): > 100 µM (inactive)
GI50 (HOP-62): > 100 µM (inactive)
GI50 (MCF7): 90.6 µM (inactive)
GI50 (SF-295): 40.3 µM (inactive)
GI50 (RXF 393): > 100 µM (inactive)

O=C(c1cc(Cl)cc(Cl)c1)N(C(=S)OC12CC3CC(CC(C3)C1)C2)c1ccccc1
GI50 (SW-620): 39.5 µM (inactive)
GI50 (786-0): 32.8 µM (inactive)
GI50 (NCI/ADR-RES): 37.3 µM (inactive)
GI50 (A498): 34.9 µM (inactive)
GI50 (NCI-H460): 35.3 µM (inactive)
GI50 (MDA-N): 31.8 µM (inactive)
GI50 (DU-145): 75.2 µM (inactive)
GI50 (UACC-62): 32.6 µM (inactive)
GI50 (HCT-116): 28.1 µM (inactive)
GI50 (SF-268): 52.8 µM (inactive)
GI50 (SNB-19): 45.6 µM (inactive)
GI50 (T47D): 61.2 µM (inactive)
GI50 (UACC-257): 43.3 µM (inactive)
GI50 (MDA-MB-231): 38.6 µM (inactive)
GI50 (ACHN): 33.2 µM (inactive)
GI50 (TK-10): 53.3 µM (inactive)
GI50 (EKVX): 21.8 µM (inactive)
GI50 (HT-29): 39.4 µM (inactive)
GI50 (SR): 43.1 µM (inactive)
GI50 (U-251): 33 µM (inactive)
GI50 (SN12C): 36.5 µM (inactive)
GI50 (OVCAR-3): 45.3 µM (inactive)
GI50 (OVCAR-5): 46.3 µM (inactive)
GI50 (Hs-578T): 48.9 µM (inactive)
GI50 (NCI-H23): 36.1 µM (inactive)
GI50 (SNB-75): 61 µM (inactive)
GI50 (HCC 2998): 33.8 µM (inactive)
GI50 (CCRF-CEM): 5.24 µM (inactive)
GI50 (Malme-3M): 49.7 µM (inactive)
GI50 (SK-MEL-5): 28.3 µM (inactive)
GI50 (A549): 42.7 µM (inactive)
GI50 (SK-OV-3): 32.5 µM (inactive)
GI50 (BT-549): 50.2 µM (inactive)
GI50 (SK-MEL-2): 19.4 µM (inactive)
GI50 (HL-60): 24.4 µM (inactive)
GI50 (HOP-92): 29 µM (inactive)
GI50 (MDA-MB-435): 42.2 µM (inactive)
GI50 (PC-3): 35.2 µM (inactive)
GI50 (CAKI-1): 42.1 µM (inactive)
GI50 (NCI-H226): 35.5 µM (inactive)
GI50 (KM12): 40.3 µM (inactive)
GI50 (COLO 205): 18.6 µM (inactive)
GI50 (SK-MEL-28): 59.4 µM (inactive)
GI50 (M14): 22.7 µM (inactive)
GI50 (HCT-15): 34.6 µM
GI50 (OVCAR-8): 41.7 µM (inactive)
GI50 (UO-31): 25.1 µM (inactive)
GI50 (SF-539): 40 µM (inactive)
GI50 (OVCAR-4): 46.8 µM (inactive)
GI50 (HOP-62): 42.7 µM (inactive)
GI50 (MCF7): 30.1 µM (inactive)
GI50 (SF-295): 34.5 µM (inactive)
GI50 (NCI-H522): 16 µM (inactive)
GI50 (RXF 393): 41.2 µM (inactive)
